This assay deals with T1, Mucosa-associated lymphoid tissue lymphoma translocation protein 1 (Homo sapiens, UniProt Q9UDY8).
T1 sequence (Q9UDY8 whole entry): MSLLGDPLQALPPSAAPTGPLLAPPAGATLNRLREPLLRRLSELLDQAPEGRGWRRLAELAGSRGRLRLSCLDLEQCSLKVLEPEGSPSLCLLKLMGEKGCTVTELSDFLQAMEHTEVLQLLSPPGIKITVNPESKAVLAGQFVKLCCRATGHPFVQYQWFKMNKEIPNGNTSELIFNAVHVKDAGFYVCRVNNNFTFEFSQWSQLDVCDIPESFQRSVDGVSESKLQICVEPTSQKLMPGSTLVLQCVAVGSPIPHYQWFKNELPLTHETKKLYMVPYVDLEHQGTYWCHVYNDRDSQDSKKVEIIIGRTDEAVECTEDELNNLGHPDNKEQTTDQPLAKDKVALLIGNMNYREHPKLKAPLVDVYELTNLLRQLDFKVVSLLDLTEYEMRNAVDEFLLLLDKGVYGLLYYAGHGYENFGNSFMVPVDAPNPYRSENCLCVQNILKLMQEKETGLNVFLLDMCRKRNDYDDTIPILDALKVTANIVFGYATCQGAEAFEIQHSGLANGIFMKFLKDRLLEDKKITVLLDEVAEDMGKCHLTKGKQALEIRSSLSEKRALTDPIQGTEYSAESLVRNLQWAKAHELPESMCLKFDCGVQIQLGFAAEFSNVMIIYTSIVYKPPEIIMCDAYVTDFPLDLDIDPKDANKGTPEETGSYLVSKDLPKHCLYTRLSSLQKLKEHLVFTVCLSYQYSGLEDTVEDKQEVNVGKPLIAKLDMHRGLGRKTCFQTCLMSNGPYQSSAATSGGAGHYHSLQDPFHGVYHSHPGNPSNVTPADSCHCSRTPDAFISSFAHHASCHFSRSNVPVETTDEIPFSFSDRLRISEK
Briefly: Biological Assay: For exemplary compounds of the disclosure, Ki for inhibition of MALT1 was measured (Table E11). A concentration of 100 nM MALT1 was used for the assay.
`CC(C)[C@H](NS(=O)(=O)c1ccc(Br)cc1)C(=O)N1CCC[C@H]1C(=O)N[C@@H](CCCNC(=N)N)C(=O)CF` returned a Ki of 66 nM. Next, `N=C(N)NCCC[C@H](NC(=O)[C@@H]1CCCN1C(=O)[C@H](Cc1cccnc1)NC(=O)c1ccc(Br)cc1)C(=O)CF`: greater than 1000 nM; `CC(C)[C@H](NC(=O)c1ccc(Br)c(C#N)c1)C(=O)N1CCC[C@H]1C(=O)N[C@@H](CCCNC(=N)N)C(=O)CF`: 13 nM. As for `Cc1nc(C(=O)N[C@H](C(=O)N2CCC[C@H]2C(=O)N[C@@H](CCCNC(=N)N)C(=O)CF)C(C)C)cs1`, the figure is 52 nM; as for `CC(C)c1ccc(C(=O)N[C@H](C(=O)N2CCC[C@H]2C(=O)N[C@@H](CCCNC(=N)N)C(=O)CF)C(C)C)cc1`, 22 nM; as for `CC(C)[C@H](NC(=O)Nc1ccccc1Cl)C(=O)N1CCC[C@H]1C(=O)N[C@@H](CCCNC(=N)N)C(=O)CF`, 24 nM.

For the compound `CC(C)[C@H](NC(=O)c1ccc(Br)c(F)c1)C(=O)N1CCC[C@H]1C(=O)N[C@@H](CCCNC(=N)N)C(=O)CF`, the affinity corresponds to a Ki of 78 nM. As for `N=C(N)NCCC[C@H](NC(=O)[C@@H]1C[C@@H](O)CN1C(=O)[C@@H](NC(=O)c1ccc(Br)cc1)C1CCCCC1)C(=O)CF`, the figure is 34 nM.

In general, Ki refers to a dissociation constant, usually derived from enzyme kinetics or from competition with a known ligand. Higher therefore signals weaker binding.

Values taken from ChEMBL document CHEMBL5727833, “MALT1 inhibitors and uses thereof” (2020).
